In one experiment the test system is rats under anesthesia. The experiment is described as follows: Measurement of urine leak point pressure in rats under anesthesia. It is filed as in vivo, rat. As to conditions: intravenous administration of not more than 10 mg/kg; female rats, urethane anesthesia, thoracic spine cut at T8 to T9. Here is the method:
Measurement of Urine Leak Point Pressure in Rats Under Anesthesia Under anesthesia with urethane (1.2 g/kg; subcutaneous administration), the thoracic spine of female rats of 8 to 12 weeks of age (Japan SLC Inc.) was cut at the level of T8 to T9 so that the micturition reflex was made to disappear, then the abdomen was subjected to a median incision to expose the bladder and then a cannula was inserted into the bladder. An appropriate amount (ca. 0.4 mL) of a physiological saline was previously infused into the bladder, both sides of the bladder were gradually pressed with two cotton buds and the inner pressure of the bladder when the physiological saline solution leaked out from the urethral orifice was measured as a pressure upon leakage of urine. The measurement was repeated several times until the measured values became stable and, after that, the test compound was intravenously administered and a pharmacological effect of the test compound was evaluated.

Experiment [1] addresses T1, [3H]norepinephrine re-uptake in synaptosome (Rattus norvegicus, UniProt Q9WTR4).
T1 construct: to give a synaptosome solution; from tissue; host or cells: rat cerebral cortex synaptosomes (male SD rats)
Put plainly: Inhibition of norepinephrine reuptake in rat cerebral cortex synaptosome. It is filed as biochemical. Conditions: Ki calculated from IC50 and Kd, read-out: Norepinephrine Reuptake Inhibiting Activity, Ki value. Here is the method:
(§1) Experiments for Inhibition of Serotonin Reuptake and Experiments for Inhibition of Norepinephrine Reuptake
(§2) Cerebral cortex of male SD rats (JAPAN SLC Inc.), over six weeks of age was excised and a 0.32M sucrose solution was added thereto in an amount of 10 mL per gram of the cerebral cortex followed by homogenizing. The homogenized solution was centrifuged, the supernatant thereof was further centrifuged at high speed and, to the resulting pellets, a PSS solution (pH 7.4; comprising 150 mM of NaCl, 4 mM of KCl, 1 mM of MgCl2, 2.5 mM of HEPES, 0.9 mg/mL of glucose, 0.176 mg/mL of ascorbic acid and 1 mM of pargylin) was added in an amount of 10 mL per gram of the pellets to give a synaptosome solution. A compound to be tested (100 μL) was added to 100 μL of the synaptosome solution and 700 μL of a 50 mM Tris buffer (pH 7.4; trihydroxylaminomethane) followed by subjecting to pre-incubation at 37° C. for 5 minutes. After the pre-incubation, 100 μL of [^3H]serotonin or [^3H]norepinephrine diluted to 10 nM and 20 nM, respectively, with a Tris buffer was added thereto followed by incubating at 37° C. for 5 minutes.
(§3) Synaptosome was recovered on a GF/B filter using a cell harvester and further washed three times using a washing solution (50 mM Tris buffer; pH 7.4; 4° C.). The filter was transferred to a vial, a scintillator was added thereto and the radiation activity was measured using a liquid scintillation counter.
(§4) Incidentally, the non-specific reaction was defined as the radiation activity under ice-cooling (4° C.) and the difference between the total radiation activity and the radiation activity under the non-specific reaction was adopted as the radiation activity specifically re-uptaken in the synaptosome. IC50 value was determined from the re-uptake inhibition rate in the presence of a test compound and, from IC50 value and the Kd value of [^3H]serotonin or [^3H]norepinephrine, Ki value of the test compound showing a re-uptake inhibiting activity of serotonin or norepinephrine, respectively, was calculated.

In experiment [2] the target is T2, [3H]serotonin re-uptake in synaptosome (Rattus norvegicus, UniProt P31652).
T2 construct: to give a synaptosome solution; from tissue; host or cells: rat cerebral cortex synaptosomes (male SD rats)
Put plainly: Inhibition of serotonin reuptake in rat cerebral cortex synaptosome. As to conditions: Ki calculated from IC50 and Kd, read-out: Serotonin Reuptake Inhibiting Activity, Ki value. It is filed as biochemical. Here is the method:
as §1, §2, §3, §4

These results are taken from US8217031B2, “Heteroaryl derivatives” (Nippon Shinyaku Co., Ltd., priority 2007, dated 2012).

Counter-ions that a name gives are not always drawn.

As a reminder, the Ki is a dissociation constant, usually derived from enzyme kinetics or from competition with a known ligand.

T1 sequence (Q9WTR4 1-597): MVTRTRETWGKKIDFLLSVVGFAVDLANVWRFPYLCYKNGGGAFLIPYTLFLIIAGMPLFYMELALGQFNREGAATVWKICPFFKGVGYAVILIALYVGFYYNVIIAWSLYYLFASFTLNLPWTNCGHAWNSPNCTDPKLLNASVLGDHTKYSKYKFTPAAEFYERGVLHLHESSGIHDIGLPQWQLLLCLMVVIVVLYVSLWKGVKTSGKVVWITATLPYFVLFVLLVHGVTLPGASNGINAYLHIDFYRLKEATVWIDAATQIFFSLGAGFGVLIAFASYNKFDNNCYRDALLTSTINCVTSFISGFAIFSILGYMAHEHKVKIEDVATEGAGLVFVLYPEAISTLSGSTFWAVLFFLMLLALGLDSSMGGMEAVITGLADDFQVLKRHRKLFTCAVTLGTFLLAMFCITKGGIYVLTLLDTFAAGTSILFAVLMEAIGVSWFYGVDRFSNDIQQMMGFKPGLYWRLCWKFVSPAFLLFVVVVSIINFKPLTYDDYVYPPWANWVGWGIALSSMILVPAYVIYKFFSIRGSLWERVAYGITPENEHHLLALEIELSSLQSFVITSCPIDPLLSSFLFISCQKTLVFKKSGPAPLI
T2 sequence (P31652 whole entry): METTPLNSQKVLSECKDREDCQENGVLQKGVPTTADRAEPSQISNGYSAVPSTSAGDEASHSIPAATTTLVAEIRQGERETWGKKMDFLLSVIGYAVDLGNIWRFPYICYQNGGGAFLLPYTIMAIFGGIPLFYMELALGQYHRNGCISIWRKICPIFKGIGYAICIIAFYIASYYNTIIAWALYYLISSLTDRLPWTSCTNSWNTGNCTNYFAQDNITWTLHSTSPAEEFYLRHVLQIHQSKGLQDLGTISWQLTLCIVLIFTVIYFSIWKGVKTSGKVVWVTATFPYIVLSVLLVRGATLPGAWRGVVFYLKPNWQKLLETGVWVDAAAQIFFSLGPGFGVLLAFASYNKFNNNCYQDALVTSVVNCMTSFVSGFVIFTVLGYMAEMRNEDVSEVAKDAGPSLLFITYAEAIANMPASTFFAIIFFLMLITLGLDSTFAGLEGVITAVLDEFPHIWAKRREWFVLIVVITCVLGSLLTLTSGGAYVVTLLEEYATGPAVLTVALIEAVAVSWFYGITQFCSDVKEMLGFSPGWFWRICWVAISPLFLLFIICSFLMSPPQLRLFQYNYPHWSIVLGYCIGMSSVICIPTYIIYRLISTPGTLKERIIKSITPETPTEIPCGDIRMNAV

As for `CN1CCC(Oc2cccc(Br)c2Cl)c2ccoc2C1.Cl` (single isomer, unassigned; (+)) [Example 398, (+)-4-(3-Bromo-2-chlorophenyloxy)-7-methyl-5,6,7,8-tetrahydro-4H-furo[2,3-c]azepine hydrochloride], the “leak point pressure (pressure upon leakage of urine)” value (“leak point pressure” below) in the experiment on rats under anesthesia is “raised the leak point pressure”. Also, the results for the Ki in experiment [1] and in experiment [2] were 5.6 nM and 1.7 nM, respectively.
Turning to `CN1CCC(Oc2cccc(Cl)c2Cl)c2ccoc2C1.Cl` (single isomer, unassigned; (+)) [Example 400, (+)-4-(2,3-Dichlorophenyloxy)-7-methyl-5,6,7,8-tetrahydro-4H-furo[2,3-c]azepine hydrochloride], the “leak point pressure” value with rats under anesthesia was “raised the leak point pressure”. In addition, the inhibition constant Ki in experiment [1] was 2.4 nM; in experiment [2] it was 0.5 nM.
Take `CN1Cc2ccsc2C(Oc2cccc3ccccc23)C1` (stereo not shown) [Example 2, 5-Methyl-7-(naphthalen-1-yloxy)-4,5,6,7-tetrahydrothieno[3,2-c]pyridine]: the inhibition constant (Ki) was 478 nM in experiment [1] and 27.2 nM in experiment [2].
On to `CN1Cc2occc2C(Oc2ccc(Cl)c(Cl)c2)C1.Cl` (stereo not shown) [Example 21, 4-(3,4-Dichlorophenyloxy)-6-methyl-4,5,6,7-tetrahydrofuro[2,3-c]pyridine hydrochloride], for which the “leak point pressure” value with rats under anesthesia is “raised the leak point pressure”.
With `CCN1Cc2sccc2C(Oc2ccc(Cl)c(Cl)c2)C1` (stereo not shown) [Example 24, 4-(3,4-Dichlorophenyloxy)-6-ethyl-4,5,6,7-tetrahydrothieno[2,3-c]pyridine hydrochloride], the results for the Ki in experiment [1] and in experiment [2] were 279 nM and 9.5 nM, respectively.
As for `Cc1cc2c(o1)CN(C)CC2Oc1ccc(Cl)c(Cl)c1` (stereo not shown) [Example 57, 4-(3,4-Dichlorophenyloxy)-2,6-dimethyl-4,5,6,7-tetrahydrofuro[2,3-c]pyridine hydrochloride], the Ki in experiment [1] is 244 nM; in experiment [2], 14.1 nM.
On to `CN1Cc2occc2C(Oc2ccc(Br)c(Cl)c2)C1` (stereo not shown) [Example 66, 4-(4-Bromo-3-chlorophenyloxy)-6-methyl-4,5,6,7-tetrahydrofuro[2,3-c]pyridine hydrochloride], for which the Ki is 484 nM in experiment [1] and 3.9 nM in experiment [2].
On to `Cc1cc2c(o1)CN(C)CC2Oc1ccc(Cl)c2ccccc12` (stereo not shown) [Example 84, 4-(4-Chloronaphthalene-1-yloxy)-2,6-dimethyl-4,5,6,7-tetrahydrofuro[2,3-c]pyridine hydrochloride], for which the Ki in experiment [1] was 207 nM; in experiment [2] it was 7.9 nM.
In the case of `Cc1cc2c(s1)CN(C)CC2Oc1ccc(Br)c(Br)c1` (stereo not shown) [Example 98, 4-(3,4-Dibromophenyloxy)-2,6-dimethyl-4,5,6,7-tetrahydrothieno[2,3-c]pyridine hydrochloride], the Ki in experiment [1] was 455 nM; in experiment [2] it was 8.6 nM.
Take `CN1CCC(Oc2ccc(Cl)c(Cl)c2)c2sccc2C1` (stereo not shown) [Example 108, 8-(3,4-Dichlorophenyloxy)-5-methyl-5,6,7,8-tetrahydro-4H-thieno[3,2-c]azepine hydrochloride]: the inhibitory constant (Ki) in experiment [1] was 64.4 nM; in experiment [2], 1.7 nM.
Take `CN1CCc2sccc2C(Oc2cccc3ccccc23)C1` (stereo not shown) [Example 109, 6-Methyl-4-(naphthalen-1-yloxy)-5,6,7,8-tetrahydro-4H-thieno[2,3-d]azepine hydrochloride]: the results for the Ki in experiment [1] and in experiment [2] were 66.2 nM and 8.9 nM, respectively.
Taken in the same sequence, the figures for `CN1CCC(Oc2ccc(Cl)c3ccccc23)c2sccc2C1` (stereo not shown) [Example 115, 8-(4-Chloronaphthalen-1-yloxy)-5-methyl-5,6,7,8-tetrahydro-4H-thieno[3,2-c]azepine hydrochloride] were 70.7 nM and 1.2 nM.
Regarding `Cc1cc2c(s1)CN(C)CCC2Oc1ccc(C(F)(F)F)cc1.Cl` (stereo not shown) [Example 133, 2,7-dimethyl-4-[4-(trifluoromethyl)phenyloxy]-5,6,7,8-tetrahydro-4H-thieno[2,3-c]azepine hydrochloride], the “leak point pressure” value with rats under anesthesia was “raised the leak point pressure”.
For `Cc1cc2c(s1)CN(C)CCC2Oc1ccc(Br)c(Br)c1` (stereo not shown) [Example 135, 4-(3,4-Dibromophenyloxy)-2,7-dimethyl-5,6,7,8-tetrahydro-4H-thieno[2,3-c]azepine hydrochloride], the Ki in experiment [2] is 5.4 nM.
With `Cc1cc2c(o1)CN(C)CCC2Oc1cccc2ccccc12` (stereo not shown) [Example 140, 2,7-Dimethyl-4-(naphthalen-1-yloxy)-5,6,7,8-tetrahydro-4H-furo[2,3-c]azepine], the Ki was 8.4 nM in experiment [1] and 4.1 nM in experiment [2].
For the compound `Cc1cc2c(s1)CN(C)CCC2Oc1cccc(Cl)c1Cl` (stereo not shown) [Example 148, 4-(2,3-Dichlorophenyloxy)-2,7-dimethyl-5,6,7,8-tetrahydro-4H-thieno[2,3-c]azepine hydrochloride], the Ki was 2 nM in experiment [1] and 2.1 nM in experiment [2].
Consider `CN1CCC(Oc2cccc(Cl)c2Cl)c2ccsc2C1` (stereo not shown) [Example 149, 4-(2,3-Dichlorophenyloxy)-7-methyl-5,6,7,8-tetrahydro-4H-thieno[2,3-c]azepine hydrochloride], for which the Ki in experiment [1] is 1.7 nM; in experiment [2], 1.8 nM.
As for `CN1CCC(Oc2cccc3ccccc23)c2occc2C1` (stereo not shown) [Example 157, 5-Methyl-8-(naphthalen-1-yloxy)-5,6,7,8-tetrahydro-4H-furo[3,2-c]azepine], the results for the inhibition constant Ki in experiment [1] and in experiment [2] were 57.5 nM and 6.8 nM, respectively.
As to `Cc1cc2c(o1)CN(C)CCC2Oc1cccc(Cl)c1Cl` (stereo not shown) [Example 163, 4-(2,3-Dichlorophenyloxy)-2,7-dimethyl-5,6,7,8-tetrahydro-4H-furo[2,3-c]azepine], the Ki in experiment [1] was 12 nM; in experiment [2], 3.8 nM.
For `CN1CCC(Oc2cccc(Cl)c2Cl)c2occc2C1` (stereo not shown) [Example 168, 8-(2,3-Dichlorophenyloxy)-5-methyl-5,6,7,8-tetrahydro-4H-furo[3,2-c]azepine], the inhibition constant Ki was 23.8 nM in experiment [1] and 6.6 nM in experiment [2].
For the compound `CN1CCC(Oc2cccc(Br)c2Cl)c2ccoc2C1` (stereo not shown) [Example 177, 4-(3-Bromo-2-chlorophenyloxy)-7-methyl-5,6,7,8-tetrahydro-4H-furo[2,3-c]azepine], the Ki was 27.5 nM in experiment [1] and 3.1 nM in experiment [2].
In the case of `CN1CCC(Oc2cccc3ccccc23)c2ccoc2C1` (stereo not shown) [Example 179, 7-Methyl-4-(naphthalen-1-yloxy)-5,6,7,8-tetrahydro-4H-furo[2,3-c]azepine hydrochloride], the Ki in experiment [1] is 24.4 nM; in experiment [2], 1 nM.
As to `Cc1cc2c(o1)CN(C)CCC2Oc1cccc(Br)c1Cl` (stereo not shown) [Example 200, 4-(3-Bromo-2-chlorophenyloxy)-2,7-dimethyl-5,6,7,8-tetrahydro-4H-furo[2,3-c]azepine], the Ki was 21.5 nM in experiment [1] and 1.7 nM in experiment [2].
Turning to `CN1CCC(Oc2cccc(Cl)c2Cl)c2ccoc2C1` (stereo not shown) [Example 213, 4-(2,3-Dichlorophenyloxy)-7-methyl-5,6,7,8-tetrahydro-4H-furo[2,3-c]azepine hydrochloride], the inhibitory constant (Ki) in experiment [1] was 4.1 nM; in experiment [2] it was 0.9 nM.
Taken in the same sequence, the figures for `CN1CCC(Oc2ccc(C(N)=O)cc2Cl)c2ccoc2C1` (stereo not shown) [Example 225, 4-(2-Chloro-4-carbamoylphenyloxy)-7-methyl-5,6,7,8-tetrahydro-4H-furo[2,3-c]azepine hydrochloride] were 11.7 nM and 18.3 nM.
